Tests used:
Format in all cases: in vivo
[1] = test system: slender amaranth (Amaranthus viridis L.); assay: Test Example 3: herbicidal effect by application to upland field (foliage treatment); conditions: foliage treatment, 1,000 g active ingredient per 1 hectare, 14th day after application, greenhouse
Summary of the method: (§1)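 Two weeks after sowing in field soil under greenhouse conditions, seedlings receive a top-down foliar spray of wettable powder diluted in water at an active-ingredient rate of 1,000 g per hectare. Effect is rated against a standard 14 days post-treatment.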

[2] = test system: barnyardgrass (Echinochloa crus-galli (L.) P. Beauv. var. crus-galli); assay: as above; conditions: foliage treatment, 1,000 g active ingredient per 1 hectare, 14th day after application, greenhouse
Summary of the method: as §1

[3] = test system: velvetleaf (Abutilon theophrasti medicus); assay: as above; conditions: foliage treatment, 1,000 g active ingredient per 1 hectare, 14th day after application, greenhouse
Summary of the method: as §1

[4] = test system: green foxtail (Setaria viridis (L.) P. Beauv.); assay: as above; conditions: foliage treatment, 1,000 g active ingredient per 1 hectare, 14th day after application, greenhouse
Summary of the method: as §1

[5] = test system: Japanese bulrush (Scirpus juncoides Roxb.); assay: Test Example 1: herbicidal effect by soil application to paddy field; conditions: paddy field soil application; active ingredient 1,000 g per 1 hectare; wettable powder added dropwise to water surface the day after sowing; examined on the 21st day after application
Summary of the method: (§2)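 Under greenhouse conditions, seeds sown on puddled paddy soil in 100 cm2 pots under 3 cm of standing water received the test compound; injury was assessed with a standard scoring scheme three weeks (day 21) after treatment.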

[6] = test system: early watergrass (Echinochloa oryzicola Vasing); assay: as above; conditions: paddy field soil application; active ingredient 1,000 g per 1 hectare; wettable powder added dropwise to water surface the day after sowing; examined on the 21st day after application
Summary of the method: as §2

[7] = test system: heartshape false pickerelweed (Monochoria vaginalis (Burm.f.) C.Presl); assay: as above; conditions: paddy field soil application; active ingredient 1,000 g per 1 hectare; wettable powder added dropwise to water surface the day after sowing; examined on the 21st day after application
Summary of the method: as §2

[8] = test system: slender amaranth (Amaranthus viridis L.); assay: Test Example 2: herbicidal effect by soil application to upland field; conditions: soil surface spray, upland field soil, 1,000 g active ingredient per hectare, 21st day after application
Summary of the method: (§3)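 Seeds were sown in field soil, covered, and the soil surface sprayed with a water-diluted wettable powder at 1,000 g active ingredient per hectare in 1,000 L/ha. Plants grew in a greenhouse, and herbicidal effect was rated against a standard scale 21 days after application.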

[9] = test system: barnyardgrass (Echinochloa crus-galli (L.) P. Beauv. var. crus-galli); assay: as above; conditions: soil surface spray, upland field soil, 1,000 g active ingredient per hectare, 21st day after application
Summary of the method: as §3

[10] = test system: velvetleaf (Abutilon theophrasti medicus); assay: as above; conditions: soil surface spray, upland field soil, 1,000 g active ingredient per hectare, 21st day after application
Summary of the method: as §3

[11] = test system: green foxtail (Setaria viridis (L.) P. Beauv.); assay: as above; conditions: soil surface spray, upland field soil, 1,000 g active ingredient per hectare, 21st day after application
Summary of the method: as §3

| SMILES | herbicidal effect, Slender Amaranth [1] | herbicidal effect, Barnyardgrass [2] | herbicidal effect, Velvetleaf [3] | herbicidal effect, Green Foxtail [4] | herbicidal effect, Scirpus juncoides Roxb. [5] | herbicidal effect, Echinochloa oryzicola Vasing [6] | herbicidal effect, Monochoria vaginalis (Burm. f.) C. Presl [7] | herbicidal effect (index), Slender Amaranth [8] | herbicidal effect (index), Barnyardgrass [9] | herbicidal effect (index), Velvetleaf [10] | herbicidal effect (index), Green Foxtail [11] |
| --- | --- | --- | --- | --- | --- | --- | --- | --- | --- | --- | --- |
| COCCCn1c(C(F)(F)F)ccc(C(=O)C2=C(O)C3CCC(C3)C2=O)c1=O (stereo not drawn) [III-22] | 5 (90% or more of herbicidal effect and crop phytotoxicity) | 5 (90% or more of herbicidal effect and crop phytotoxicity) | 5 (90% or more of herbicidal effect and crop phytotoxicity) | 5 (90% or more of herbicidal effect and crop phytotoxicity) | 5 (90% or more of herbicidal effect and crop phytotoxicity) | 5 (90% or more of herbicidal effect and crop phytotoxicity) | 5 (90% or more of herbicidal effect and crop phytotoxicity) | 5 (90% or more of herbicidal effect and crop phytotoxicity) | 5 (90% or more of herbicidal effect and crop phytotoxicity) | 5 (90% or more of herbicidal effect and crop phytotoxicity) | 5 (90% or more of herbicidal effect and crop phytotoxicity) |
| COCCOCCn1c(C(F)(F)F)ccc(C(=O)C2=C(O)C3CCC(C3)C2=O)c1=O (stereo not drawn) [III-23] | 5 (90% or more of herbicidal effect and crop phytotoxicity) | 5 (90% or more of herbicidal effect and crop phytotoxicity) | 5 (90% or more of herbicidal effect and crop phytotoxicity) | 5 (90% or more of herbicidal effect and crop phytotoxicity) | 5 (90% or more of herbicidal effect and crop phytotoxicity) | 5 (90% or more of herbicidal effect and crop phytotoxicity) | 5 (90% or more of herbicidal effect and crop phytotoxicity) | 5 (90% or more of herbicidal effect and crop phytotoxicity) | 5 (90% or more of herbicidal effect and crop phytotoxicity) | 5 (90% or more of herbicidal effect and crop phytotoxicity) | 5 (90% or more of herbicidal effect and crop phytotoxicity) |
| COC(C)Cn1c(C(F)(F)F)ccc(C(=O)C2=C(O)C3CCC(C3)C2=O)c1=O (stereo not drawn) [III-24] | 5 (90% or more of herbicidal effect and crop phytotoxicity) | 5 (90% or more of herbicidal effect and crop phytotoxicity) | 5 (90% or more of herbicidal effect and crop phytotoxicity) | 5 (90% or more of herbicidal effect and crop phytotoxicity) | 5 (90% or more of herbicidal effect and crop phytotoxicity) | 5 (90% or more of herbicidal effect and crop phytotoxicity) | 5 (90% or more of herbicidal effect and crop phytotoxicity) | 5 (90% or more of herbicidal effect and crop phytotoxicity) | 5 (90% or more of herbicidal effect and crop phytotoxicity) | 5 (90% or more of herbicidal effect and crop phytotoxicity) | 5 (90% or more of herbicidal effect and crop phytotoxicity) |
